Measurements taken from patent US12029748B2, “Synergistic composition for maintenance of healthy balance of microflora” (KIMBERLY-CLARK WORLDWIDE, INC., priority 2017, dated 2024).
Where a SMILES comes first, the peptide text is derived from it.

Legend:
[1] = test system: L. crispatus and E. coli; assay: Therapeutic Effect Protocol: L. crispatus / E. coli co-culture, ratio after 36 hours; assay type: cell-based, Lactobacillus crispatus; E. coli; conditions: for Therapeutic Efficacy Results (Lactobacillus/E. coli) 0.10%: nitrogen compound 0.10 wt/vol % with 1.0 wt/vol % α methyl-D glucoside (10:1); for Therapeutic Efficacy Results (Lactobacillus/E. coli) 0.10% / Therapeutic Efficacy Results (Lactobacillus/E. coli) 0.50% / Therapeutic Efficacy Results (Lactobacillus/E. coli) 1.00%: 36 hours anaerobic co-culture, 37° C.; for Therapeutic Efficacy Results (Lactobacillus/E. coli) 0.50%: nitrogen compound 0.50 wt/vol % with 1.0 wt/vol % α methyl-D glucoside (2:1); for Therapeutic Efficacy Results (Lactobacillus/E. coli) 1.00%: nitrogen compound 1.00 wt/vol % with 1.0 wt/vol % α methyl-D glucoside (1:1); for Therapeutic effect when ratio α methyl-D glucoside : nitrogen compound is at least about 2:1, but not at 1:1 / Therapeutic effect at ratio 2:1 and 10:1, but not at 1:1: with α methyl-D glucoside; for Therapeutic effect when ratio α methyl-D glucoside : nitrogen compound is at least about 2:1, but not at 1:1: ratio at least about 2:1, not 1:1; for Therapeutic effect at ratio 2:1 and 10:1, but not at 1:1: ratios 2:1 and 10:1, not 1:1
Method: As used herein the term “therapeutic effect” refers to the ability of the compositions and formulations of the present invention to stimulate the growth of Lactobacillus relative E. coli measured according to the Therapeutic Effect Protocol described below. Generally, therapeutic effect is expressed as a ratio of Lactobacillus to E. coli and is desirably greater than about 2, more preferably greater than about 20 and more desirably greater than about 100.
The data in Table 1 was tested according to the Therapeutic Effect Protocol as described further herein. The nitrogen compounds were tested for their therapeutic efficacy at three different concentrations when combined with α methyl-D glucoside (1% wt/vol %). The concentrations of the nitrogen containing compounds that were tested were 1% wt/vol %, 0.5% wt/vol %, and 0.1% wt/vol %.
Colonies of L. crispatus and E. coli were prepared as follows. A colony of L. crispatus was transferred to 7 ml de Man, Rogosa & Sharpe (MRS) broth and incubated anaerobically (using BD GasPak EZ anaerobe container system with indicator) at 37° C. without shaking for 18-20 hours. A colony of E. coli was transferred to 5 ml Tryptic Soy Broth (TSB) and incubated aerobically (shaking at 100 rpm) at 37° C. for 18-20 hours.
Colonies were then inoculated as follows. Bacterial cultures were gently vortexed and 1 mL of each culture was transferred to a corresponding 2.0 mL micro-centrifuge tube and then centrifuged for two minutes at 14,500 rpm. The cultural supernatant was removed and the cell pellet was re-suspended in 1 mL of 0.95% (wt/vol %) saline. […] For L. crispatus, the pellet was re-suspended in 1 mL of 0.95% saline to achieve ˜10^7-10^8 cfu/mL. For E. coli, the pellet was re-suspended in 1 mL of 0.95% saline to achieve ˜10^8-10^9 cfu/mL.
Media were prepared as follows.
(§1) All of the ingredients in Table 2 were combined and the pH was adjusted to 6.5. […] To evaluate the effect of various nitrogen containing therapeutic agents on the growth of bacteria, the LAPT-g media, prepared as described above, was supplemented with various nitrogen containing compound therapeutic agents to a final test concentration between 0.1 and 1.0%. As initial screening measures, solubility and initial pH of each composition were checked. If a specific composition was insoluble (as detected by visual indication of precipitates or turbidity), then no further therapeutic efficacy testing was undertaken on that composition. Additionally, if the initial pH of the composition was below 5.5 (“Low”) or was above 6.5 (“High”), then no further therapeutic efficacy testing was undertaken on that composition.
Five milliliters (5 mL) of each medium was transferred to a test tube in duplicates for subsequent inoculation. A master mixture of L. crispatus and E. coli, prepared as described above, was prepared in 1,000:1 ratio. Each (5 ml) test tube was inoculated with the master mixture to give 10^5-10^6 total CFU L. crispatus and 100-1,000 total CFU E. coli per tube.
To establish a negative control, one tube was vortexed and 100 μL was removed to determine the initial cell concentrations by serial dilutions and plating (2 plates per dilution). L. crispatus is selected on MRS agar plates incubated anaerobically at 37° C. for two days. E. coli is selected on TSA plates incubated aerobically at 37° C. for one day. The co-cultures were incubated in an anaerobic container with BD GasPaks at 37° C. for 36 hours.
The effect of the α methyl-D glucoside and the nitrogen containing compound therapeutic agents on the ratio of L. crispatus to E. coli was measured 36 hours after inoculation and a final pH of the test solutions was recorded. The co-culture tube was vortexed and 100 μL was removed to determine the final cell concentrations by serial dilutions and plating (2 plates per dilution). L. crispatus is selected on MRS agar plates incubated anaerobically at 37° C. for two days.

[2] = Initial pH screening of the composition; assay type: physicochemical; conditions: for I pH (initial pH), 0.10%: nitrogen compound 0.10 wt/vol % with 1.0 wt/vol % α methyl-D glucoside in medium; for I pH (initial pH), 0.50%: nitrogen compound 0.50 wt/vol % with 1.0 wt/vol % α methyl-D glucoside in medium; for I pH (initial pH), 1.00%: nitrogen compound 1.00 wt/vol % with 1.0 wt/vol % α methyl-D glucoside in medium
Text: Each composition in Table 1 went through initial screening measures of solubility and initial pH (“I pH”). […] When a specific concentration of a nitrogen containing compound was insoluble, the initial and final pH (“F pH”) of the combined composition was not measured and accordingly are each marked as “NM.” Additionally, initial pH of the composition was checked as a screening measure. The initial pH was marked as either Low (“L”), High (“H”), or Pass (“P”). A Low initial pH corresponds to an initial pH being less than 5.5, a High initial pH corresponds to an initial pH being greater than 6.5, and a Pass initial pH corresponds to the pH being at or between 5.5-6.5. […] As part of the Therapeutic Effect Protocol, a final pH was also measured after the compositions that were tested against the Lactobacillus and E. coli.
as §1

| Structure (SMILES) | Therapeutic Efficacy Results (Lactobacillus/E. coli) 0.10% [1] | Therapeutic Efficacy Results (Lactobacillus/E. coli) 0.50% [1] | Therapeutic Efficacy Results (Lactobacillus/E. coli) 1.00% [1] | Therapeutic effect when ratio α methyl-D glucoside : nitrogen compound is at least about 2:1, but not at 1:1 [1] | Therapeutic effect at ratio 2:1 and 10:1, but not at 1:1 [1] | I pH (initial pH), 0.10% [2] | I pH (initial pH), 0.50% [2] | I pH (initial pH), 1.00% [2] |
| --- | --- | --- | --- | --- | --- | --- | --- | --- |
| NCC(=O)N[C@@H](CC(N)=O)C(=O)O [Gly-Asn] (H-Gly-Asn-OH) | 108 | >1.58E+04 | 1.3 | provided a therapeutic effect | provided a therapeutic effect | P (a Pass initial pH corresponds to the pH being at or between 5.5-6.5) | P (a Pass initial pH corresponds to the pH being at or between 5.5-6.5) | P (a Pass initial pH corresponds to the pH being at or between 5.5-6.5) |
| NCC(=O)N[C@@H](CCC(N)=O)C(=O)O.O [Gly-Gln] (H-Gly-Gln-OH) | 8.57 | >189 | 0.38 | provided a therapeutic effect | provided a therapeutic effect | P (a Pass initial pH corresponds to the pH being at or between 5.5-6.5) | P (a Pass initial pH corresponds to the pH being at or between 5.5-6.5) | P (a Pass initial pH corresponds to the pH being at or between 5.5-6.5) |
| NCC(=O)N[C@@H](CCC(=O)O)C(=O)O [Gly-Glu] (H-Gly-Glu-OH) | 6.83 |  |  | provided a therapeutic effect |  | P (a Pass initial pH corresponds to the pH being at or between 5.5-6.5) | L (A Low initial pH corresponds to an initial pH being less than 5.5) | L (A Low initial pH corresponds to an initial pH being less than 5.5) |
| CSCC[C@H](NC(=O)CN)C(=O)O [Gly-Met] | 238 | >2343.75 | 0.81 | provided a therapeutic effect | provided a therapeutic effect | P (a Pass initial pH corresponds to the pH being at or between 5.5-6.5) | P (a Pass initial pH corresponds to the pH being at or between 5.5-6.5) | P (a Pass initial pH corresponds to the pH being at or between 5.5-6.5) |
| C[C@H](NC(=O)CN)C(=O)O [Glycyl-Alanine] (H-Gly-Ala-OH) | 0.803 | 220 | 1.49 | provided a therapeutic effect |  | P (a Pass initial pH corresponds to the pH being at or between 5.5-6.5) | P (a Pass initial pH corresponds to the pH being at or between 5.5-6.5) | P (a Pass initial pH corresponds to the pH being at or between 5.5-6.5) |
| C[C@H](N)C(=O)N[C@H](C(=O)O)[C@@H](C)O [H-Ala-Thr-OH] (H-Ala-Thr-OH) | 212 | >103 | 1.64 | provided a therapeutic effect | provided a therapeutic effect | P (a Pass initial pH corresponds to the pH being at or between 5.5-6.5) | P (a Pass initial pH corresponds to the pH being at or between 5.5-6.5) | P (a Pass initial pH corresponds to the pH being at or between 5.5-6.5) |
| NO [Hydroxylamine] | 0.20 |  |  |  |  | H (a High initial pH corresponds to an initial pH being greater than 6.5) | H (a High initial pH corresponds to an initial pH being greater than 6.5) | H (a High initial pH corresponds to an initial pH being greater than 6.5) |
| OC[C@H]1O[C@@H](n2cnc3c(O)ncnc32)[C@H](O)[C@@H]1O [Inosine] | 2.75E+04 | 226 | 0.45 | provided a therapeutic effect | provided a therapeutic effect | P (a Pass initial pH corresponds to the pH being at or between 5.5-6.5) | P (a Pass initial pH corresponds to the pH being at or between 5.5-6.5) | P (a Pass initial pH corresponds to the pH being at or between 5.5-6.5) |
| C[C@H](N)C(=O)O [L-Alanine] | 1.5 | 1.52 | 1.3 |  |  | P (a Pass initial pH corresponds to the pH being at or between 5.5-6.5) | P (a Pass initial pH corresponds to the pH being at or between 5.5-6.5) | P (a Pass initial pH corresponds to the pH being at or between 5.5-6.5) |
